Experimental data reported in patent US11021486B2, “Coumarin-like cyclic compound as MEK inhibitor and use thereof” (CSTONE PHARMACEUTICALS, priority 2017, dated 2021).
Where two headings read alike, the source gives them in different places.

Legend:
activated MEK1 = molecular target: T1, activated MEK1 (Homo sapiens, UniProt Q02750); assay: MEK Lance Ultra experiment; type: biochemical; settings: 0.07 nM activated MEK1, 2 nM non-activated ERK, 50 μM ATP; read-out: MEK potency IC50
T1 construct: purchased Millipore 14-429
T1 sequence (Q02750 whole entry): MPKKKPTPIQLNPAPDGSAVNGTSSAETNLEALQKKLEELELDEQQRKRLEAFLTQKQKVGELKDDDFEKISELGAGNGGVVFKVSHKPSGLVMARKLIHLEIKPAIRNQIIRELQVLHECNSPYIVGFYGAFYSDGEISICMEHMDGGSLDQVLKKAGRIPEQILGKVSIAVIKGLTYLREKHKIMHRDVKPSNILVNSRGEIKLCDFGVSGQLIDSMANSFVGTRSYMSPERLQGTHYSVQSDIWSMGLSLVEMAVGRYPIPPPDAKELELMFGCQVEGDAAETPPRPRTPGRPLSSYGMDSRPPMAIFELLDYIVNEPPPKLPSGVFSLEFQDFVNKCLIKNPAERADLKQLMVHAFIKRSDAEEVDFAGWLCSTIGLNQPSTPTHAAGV
Procedure: Biological Test Method 1: MEK Lance Ultra Experiment Compounds were serially diluted three-fold to 10 concentrations, two duplicates were set. Final test concentrations of the compounds ranged from 10 μM to 0.51 nM. 0.07 nM activated MEK1 (Millipore #14-429) and 2 nM non-activated ERK (Millipore #14-515) were mixed with the compounds or DMSO, the mixture was incubated at 23° C. for 30 minutes. Then 50 nM ULight labeled MBP (PerkinElmer #TRF0109-M) and 50 μM ATP (Invitrogen #PV3227) were added to initiate the reaction, and the mixture was incubated at 23° C. for 90 minutes. After the reaction was stopped by adding EDTA at a final concentration of 15 mM, 2 nM Eu-labeled anti-phosphorylated antibody (PerkinElmer #TRF0201-M) was added and incubated for 1 hour. The fluorescence signal data (excitation band: 320 nm; emission band: 665 nM/615 nM) was determined by an Envision microplate reader (PerkinElmer). XLfit5 software was used for data analysis and mapping.

[1] = test system: HT-29 cell subcutaneous xenograft tumor; assay: In vivo pharmacodynamics study on HT-29 cell subcutaneous xenograft tumor model; set-up: species or system BALB/c nude mouse; settings: QD
Procedure: Biological Test Method 3: In Vivo Pharmacodynamics Study on HT-29 Cell Subcutaneous Xenograft Tumor Model in BALB/c Nude Mouse
Human colon cancer HT-29 cells (ATCC-HTB-38) were cultured in monolayer in vitro, with McCoy's 5a medium (Gibco, 1835937) supplemented with 10% fetal bovine serum, 100 U/mL penicillin and 100 μg/mL streptomycin, at 37° C. under 5% CO2. The cells were conventionally digested with trypsin-EDTA and passaged twice a week. When the cell saturation was 80%-90%, the cells were collected, counted and inoculated. 0.1 mL (5×10^6) of HT-29 cells was subcutaneously inoculated into the right back of each nude mouse. […] The diameter of the tumor was measured twice a week with a vernier caliper. The tumor volume is calculated by the formula: V=0.5a×b^2, wherein a and b represent the length and width respectively. The antitumor activity of the compounds was evaluated by TGI (%), which reflects the tumor growth inhibition rate. Calculation of TGI (%): TGI (%)=[(1−(average tumor volume at the end of administration in a treatment group−average tumor volume at the start of treatment in this treatment group))/(average tumor volume at the end of treatment in the solvent control group−average tumor volume at the start of treatment in the solvent control group)]×100%.

A375 cells = assay: Cell viability experiment (Cell Titer-Glo), A375; type: cell-based
Procedure: (§1) Biological Test Method 2: Cell Viability Experiment
(§2) HT29 and A375 cells were plated in a 96-well cell culture plate at a density of 40,000 cells/well and 20,000 cells/well respectively, and the cells were cultured overnight. The compounds were serially diluted in a gradient of 1:3, the dilutions were added to the cell culture medium, and incubated with the cells in a 37° C. incubator for 3 days. The 96-well cell culture plate was taken from the incubator and equilibrated at room temperature for 30 minutes, then Cell Titer-Glo reagent (Promega Cat #G7573) was added at a ratio of 1:2, and the mixture was mixed thoroughly on a shaker for 2 minutes to promote cell lysis. The cell culture plate was incubated at room temperature for 10 minutes and then read on an Envision microplate reader (PerkinElmer). XLfit5 software was used for data analysis and mapping.

HT29 cells = assay: Cell viability experiment (Cell Titer-Glo), HT29; type: cell-based, human
Procedure: as §1, §2

[2] = Pharmacokinetics study of the compounds in C57BL/6 mice; type: in vivo; settings: male, mouse, single intravenous and oral dose, plasma; for bioavailability: read-out: Bioavailability F; for AUC: read-out: Comcentration quadrature AUC; for half-life: read-out: Half life T1/2 (converted)
Procedure: Biological Test Method 4: Pharmacokinetics Study of the Compounds in C57BL/6 Mice Experimental Materials: C57BL/6 mice (male, 18-22 g, 7-9 weeks old, Shanghai Lingchang) Experimental Procedure: The pharmacokinetic characteristics of the compounds in rodents were determined after intravenous and oral administration of the compounds by standard protocols. In the experiment, candidate compounds were formulated into clear solutions, and intravenously and orally administrated to […] in a single dose. The menstruum for intravenous and oral administration was DMSO, PEG and water at a certain ratio or Solutol, HPMC and SLS aqueous solutions at a certain ratio. The whole blood samples within 24 hours were collected, centrifuged at 3,000 rpm for 15 minutes, and the supernatants were isolated to obtain plasma samples. An acetonitrile solution containing an internal standard with a volume of 4 times as the plasma sample volume was added to precipitate the protein. After centrifugation, the supernatant was collected and an equal volume of water was added. After centrifugation, the supernatant was collected and injected to quantitatively analyze the blood drug concentration by LC-MS/MS analysis method, and the pharmacokinetic parameters were calculated, e.g., peak concentration, peak time, clearance, half-life, area under the drug concentration-time curve, bioavailability, etc.

[3] = Homo sapiens, A-375, 72 h, A375 cells, 3 days incubation, read-out: A375 IC50
[4] = Homo sapiens, HT-29, 72 h, HT29 cells, 3 days incubation, read-out: HT29 IC50
[5] = Homo sapiens, A-375, 72 h, read-out: A375 IC50, A375 cells, 3 days incubation
[6] = Homo sapiens, HT-29, 72 h, read-out: HT29 IC50, HT29 cells, 3 days incubation

Structure (SMILES)	IC50 (activated MEK1) [nM]	IC50 (A375 cells; [3]) [nM]	IC50 (HT29 cells; [4]) [nM]	also measured
CC(=O)Nc1cccc(-c2c(C)n(C3CC3)c(=O)c3c(Nc4ccc(I)cc4F)c(C)c(=O)oc23)c1 [WX034]	27.8	1.48	6.39	TGI ([1]; 3 mpk, 21 days): 90.6%; clearance [2]: 1.84 mL/min/kg; bioavailability [2]: 68.7%; AUC [2]: 30.5 µM·h; half-life [2]: 325 min
Cc1c(NS(C)(=O)=O)cccc1-c1c(C)n(C2CC2)c(=O)c2c(Nc3ccc(I)cc3F)c(C)c(=O)oc12 (single isomer, unassigned) [WX113]	5.61	0.37	0.82	TGI ([1]; 0.2 mpk, 25 days (5 days administration, and 2 days break)): 82.8%; clearance [2]: 2.92 mL/min/kg; bioavailability [2]: 73.1%; AUC [2]: 17.6 µM·h; half-life [2]: 278 min
Cc1c(Nc2ccc(I)cc2F)c2c(=O)n(C3CC3)c(C)c(-c3cccc(CS(C)(=O)=O)c3)c2oc1=O [WX071]	66	2.99	4.05	TGI ([1]; 0.5 mpk, 21 days): 91%; clearance [2]: 0.912 mL/min/kg; bioavailability [2]: 83%; AUC [2]: 58.2 µM·h; half-life [2]: 317 min
Cc1c(Nc2ccc(I)cc2F)c2c(=O)n(C3CC3)c(C)c(-c3cccc(NS(C)(=O)=O)c3)c2oc1=O [WX066]	77.3	4.58	7.44	TGI ([1]; 0.5 mpk, 21 days): 89%; clearance [2]: 1.85 mL/min/kg; bioavailability [2]: 99.2%; AUC [2]: 28.6 µM·h; half-life [2]: 457 min
Cc1c(CS(C)(=O)=O)cccc1-c1c(C)n(C2CC2)c(=O)c2c(Nc3ccc(I)cc3F)c(C)c(=O)oc12 [WX106]	29.9	–	–	IC50 (A375 cells; [5]): 2.32 nM; IC50 (HT29 cells; [6]): 5.89 nM
CNCc1cccc(-c2c(C)n(C3CC3)c(=O)c3c(Nc4ccc(I)cc4F)c(C)c(=O)oc23)c1 [WX097]	29.5	17.2	105	–
Cc1c(Nc2ccc(I)cc2F)c2c(=O)n(C3CC3)c(C)c(-c3cccc(C(N)=O)c3)c2oc1=O [WX112]	52.9	6.04	20.3	–
Cc1c(NS(C)(=O)=O)cccc1-c1c(C)n(C2CC2)c(=O)c2c(Nc3ccc(I)cc3F)c(C)c(=O)oc12 [WX086]	29.6	–	–	TGI ([1]; 0.5 mpk (0-11 D): 0.35 mpk (12-21 D), 21 days): 83.1%; IC50 (A375 cells; [5]): 0.4 nM; IC50 (HT29 cells; [6]): 0.62 nM; clearance [2]: 2.2 mL/min/kg; bioavailability [2]: 76.8%; AUC [2]: 23.4 µM·h; half-life [2]: 420 min
CCS(=O)(=O)Nc1cccc(-c2c(C)n(C3CC3)c(=O)c3c(Nc4ccc(I)cc4F)c(C)c(=O)oc23)c1 [WX082]	97.4	1.75	3.93	–
Cc1c(Nc2ccc(I)cc2F)c2c(=O)n(C3CC3)c(C)c(-c3cccc(C[S+](C)[O-])c3)c2oc1=O (single isomer, unassigned) [WX084]	176	–	–	IC50 (A375 cells; A375 cells, 3 days incubation, read-out: A375 IC50): 6.18 nM; IC50 (HT29 cells; HT29 cells, 3 days incubation, read-out: HT29 IC50): 17.4 nM
Cc1c(Nc2ccc(I)cc2F)c2c(=O)n(C3CC3)c(C)c(-c3cccc(NS(=O)(=O)C(C)(C)C)c3)c2oc1=O [WX095]	48.6	0.79	1.77	–
CC(=O)Nc1cccc(-c2c(C)[nH]c(=O)c3c(Nc4ccc(I)cc4F)c(C)c(=O)oc23)c1 [WX049]	67	3.08	7.4	–
CC(=O)Nc1cccc(-c2c(C)n(C3CCOCC3)c(=O)c3c(Nc4ccc(I)cc4F)c(C)c(=O)oc23)c1 [WX059]	32.4	1650	923	–
CC(=O)Nc1cccc(-c2c(C)n(CCN(C)S(C)(=O)=O)c(=O)c3c(Nc4ccc(I)cc4F)c(C)c(=O)oc23)c1 [WX055]	71.1	643	978	–
CC(=O)Nc1cccc(Cc2c(C)n(C3CC3)c(=O)c3c(Nc4ccc(I)cc4F)c(C)c(=O)oc23)c1 [WX102]	12.3	0.37	2.05	–
Cc1c(Nc2ccc(I)cc2F)c2c(=O)n(C3CC3)c(C)c(-c3cccc(NC(=O)C4COC4)c3)c2oc1=O [WX065]	36.2	4.31	7.38	–
Cc1c(Nc2ccc(I)cc2F)c2c(=O)n(C3CC3)c(C)c(-c3cccc(N(S(C)(=O)=O)S(C)(=O)=O)c3)c2oc1=O [WX067]	199	25.1	75.3	–
